The test system of experiment [1] is HepG2 cells. The experiment can be described thus: Fatty acid ([3H]oleate:albumin) influx in HepG2 cells. The class given is cell-based, human.
For experiment [2], the system named is DRM-PM proteins iPLA2ß, CD36, FABPPM, caveolin1. Kind of experiment: DRM-PM protein levels in HepG2 cells by semi-quantitative densitometry. Type of experiment: cell-based, human. Particulars: bafilomycin 50 nM, 16 h.
Experiment [3] concerns transcripts of all complex subunits. The experiment can be described thus: In vitro transcription in native HepG2 nuclear extracts exposed to LPC-conditioned delipidated cytosol. Particulars: delipidated cytosol incubated with LPC 1 h. The class given is biochemical, human.
A further experiment concerns cytosolic LPC. The experiment can be described thus: Cytosolic LPC concentration in HepG2 cells. Particulars: Homo sapiens, HepG2, 0.5 h; 30 min treatment (Fig. 7); read-out: suppression of cytosolic LPC (IC50). Type of experiment: cell-based, human.
In experiment [4] the test system is HepG2 cells. The experiment can be described thus: [3H]glucose influx in HepG2 cells. Particulars: at 10 mM glucose; MßCD. The class given is cell-based, human.
Experiment [5] concerns the target T1, organic anion-transporting polypeptide 1 in HepG2 cells (Homo sapiens, UniProt P46721).
T1 construct: host or cells: HepG2 (endogenous)
T1 sequence (P46721 1-670): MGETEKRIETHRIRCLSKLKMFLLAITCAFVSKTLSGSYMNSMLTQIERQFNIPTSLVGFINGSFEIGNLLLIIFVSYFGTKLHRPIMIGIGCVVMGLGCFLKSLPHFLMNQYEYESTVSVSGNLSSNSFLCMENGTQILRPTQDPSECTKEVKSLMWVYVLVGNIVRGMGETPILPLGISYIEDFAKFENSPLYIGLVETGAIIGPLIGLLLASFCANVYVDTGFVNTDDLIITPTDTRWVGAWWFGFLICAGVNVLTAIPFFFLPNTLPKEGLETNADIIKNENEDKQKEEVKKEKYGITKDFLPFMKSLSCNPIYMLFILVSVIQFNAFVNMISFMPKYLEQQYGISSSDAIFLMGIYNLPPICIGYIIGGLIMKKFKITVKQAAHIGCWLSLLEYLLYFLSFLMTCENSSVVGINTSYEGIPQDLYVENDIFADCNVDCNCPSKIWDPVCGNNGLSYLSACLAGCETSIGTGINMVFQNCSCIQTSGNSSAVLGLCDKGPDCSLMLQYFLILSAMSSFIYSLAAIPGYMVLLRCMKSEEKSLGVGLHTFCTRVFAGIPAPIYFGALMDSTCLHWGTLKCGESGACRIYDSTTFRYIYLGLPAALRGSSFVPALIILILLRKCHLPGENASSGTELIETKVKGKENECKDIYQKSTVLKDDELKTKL
Particulars: uptake by HepG2 cells; Chamulitrat et al. 2009; read-out: half-maximal inhibitory concentration (IC50) for competition with UDCA-LPE uptake; cited from earlier work.

Peptide text beside a SMILES is read from it. * marks the point of attachment. Cbz = O=C(OCc1ccccc1)*

Procedure for cytosolic LPC: LPC concentration in cytosolic supernatants was measured as previously described (Kishimoto T et al. Clin. Biochem. 2002; 35: 411-416).

`O=C([O-])[C@H](O)[C@@H](O)[C@H](O)[C@H](O)CO.[Na+]` [Na-gluconate, reference compound]: in the experiment with HepG2 cells [1], the “passive translocation component of fatty acid influx” value is given as “inhibited to negligible levels”.

`CO/C1=C\C(C)=C\[C@@H](C)[C@@H](O)[C@@H](C)C/C(C)=C/C=C/[C@H](OC)[C@@H]([C@@H](C)[C@@H](O)[C@H](C)[C@@]2(O)C[C@@H](O)[C@H](C)[C@@H](C(C)C)O2)OC1=O` [bafilomycin] gave a fatty acid influx in the experiment with HepG2 cells [1] (bafilomycin 50 nM, 16 h, untreated 26.95 ± 2.4) of 33.33 ± 5.1 nmol/mg protein/min. Further, in experiment [2], the “increase in DRM-PM CD36” value turned out to be 40.85 ± 10.56%, the “increase in DRM-PM FABPPM” value was 25.99 ± 3.35%, the “increase in DRM-PM caveolin1” value is 60.76 ± 7.03% and the “increase in DRM-PM iPLA2ß” value is recorded as 51.56 ± 9.85%.

For the compound lysophosphatidylcholine [LPC], in experiment [3], the “LPC concentration at which the transcripts of all complex subunits were downregulated” value came to 5 µmol/mg protein.

Take `CC(C)C[C@@H](C=O)NC(=O)[C@H](CC(C)C)NC(=O)[C@H](CC(C)C)NC(=O)OCc1ccccc1` [MG132, reference compound] (Cbz-Leu-Leu-Leu-aldehyde): in the experiment with HepG2 cells [1], the “effect on fatty acid uptake” value is “no effect on uptake”.

Regarding `O=C1O/C(=C/Br)CCC1c1cccc2ccccc12` (stereo not shown) [BEL, bromoenol lactone, reference compound], the IC50 with cytosolic LPC is 43 µM; with HepG2 cells [1] (Homo sapiens, HepG2, 1-h treatment with increasing concentrations (Fig. 2A), read-out: inhibition of fatty acid influx (IC50)), 52 µM.

Consider “methyl-beta-cyclodextrin [MßCD, reference compound]”, for which the “additional reduction of fatty acid influx” value in the experiment with HepG2 cells [1] is reported as 60%. For the same compound, the “influx of [3H]glucose” value in the experiment on HepG2 cells [4] is given as 135.70 ± 14.7 nmol/mg protein/min.

Turning to `C[C@H](CCC(=O)O)[C@H]1CC[C@H]2[C@@H]3[C@@H](O)C[C@@H]4C[C@H](O)CC[C@]4(C)[C@H]3CC[C@]12C` [UDCA, ursodeoxycholic acid], the IC50 in experiment [5] was 20 µM.

The record behind these values is EP2929785A1, “A PLA inhibitor for inhibition of fat absorption” (PAT GmbH, priority 2014, dated 2015).
